From patent US8921366B2, “Substituted triazolo-pyridazine derivatives” (Concert Pharmaceuticals, Inc., priority 2008, dated 2014)

Legend:
[1] = Metabolic stability in rat liver microsomes; assay type: in vitro ADME; conditions: for parent compound remained intact / stability in rat microsomes: 30 minutes incubation; for half-life at 0.25 µM: pH 7.4, calculated from slope of ln % parent remaining vs time, read-out: in vitro half-life
Protocol: (§1) Human liver microsomes (20 mg/mL) and rat liver microsomes (20 mg/mL) were obtained from Xenotech, LLC (Lenexa, Kans.). β-nicotinamide adenine dinucleotide phosphate, reduced form (NADPH), magnesium chloride (MgCl2), and dimethyl sulfoxide (DMSO) were purchased from Sigma-Aldrich. 7.5 mM stock solutions of test compounds (L-838417, Compound 101, Compound 103, Compound 104 and Compound 105) were prepared in DMSO. The 7.5 mM stock solutions were diluted to 12.5 μM in acetonitrile (ACN). The 20 mg/mL […] were diluted to […] in 0.1 M potassium phosphate buffer, pH 7.4, containing 3 mM MgCl2. The diluted microsomes (375 μL) were added to wells of a 96-well deep-well polypropylene plate in triplicate. 10 μL of the 12.5 μM test compound was added to the microsomes and the mixture was pre-warmed for 10 minutes. Reactions were initiated by addition of 125 μL pre-warmed NADPH solution. The final reaction volume is 0.5 mL and contained 0.5 mg/mL human liver microsomes, 0.25 μM test compound, and 2 mM NADPH in 0.1 M potassium phosphate buffer, pH 7.4, and 3 mM MgCl2. The reaction mixtures are incubated at 37° C., and 50 μL aliquots were removed at 0, 5, 10, 20, and 30 minutes and added to shallow-well 96-well plates which contained 50 μL of ice-cold ACN with internal standard to stop the reactions. The plates were stored at 4° C. for 20 minutes after which 100 μL of water was added to the wells of the plate before centrifugation to pellet precipitated proteins. Supernatants were transferred to another 96-well plate and analyzed for amounts of parent remaining by LC-MS/MS using an Applied Bio-systems API 4000 mass spectrometer. 7-ethoxycoumarin (1 μM) was used as a positive control. The in vitro t1/2s for test compounds were calculated from the slopes of the linear regression of % parent remaining (ln) vs incubation time relationship, using the formula: in vitro t1/2=0.693/k, where k=−[slope of linear regression of % parent remaining(ln) vs incubation time] Data analysis is performed using Microsoft Excel Software.

[2] = Metabolic stability in human liver microsomes; assay type: in vitro ADME; conditions: for stability in human liver microsomes: 30 minute incubation
Protocol: as §1

[3] = Pharmacokinetics after intravenous administration to rats; assay type: in vivo, Sprague-Dawley rats; conditions: for clearance / half-life / AUC(0-t): rat, plasma, 1 mg/kg each as 1:1:1 mixture, male Sprague-Dawley rats; for AUC(0-t): read-out: AUC0-6; for AUC0-6 % Change over L-838417 / AUC0-6 relative to undeuterated L-838417 / CL % Change over L-838417 / cleared more slowly than L-838417 / longer half-life than undeuterated L-838417 / t1/2 % Change over L-838417: rats
Protocol: (§2) Three male Sprague-Dawley rats (200-250 g each) were cannulated in the jugular vein and were administered a single dose containing 1 mg/kg each of L-838417, Compound 103 and Compound 105 (as a 1:1:1 mixture containing 1 mg/mL of each of the three compounds in 10% dimethyl sulfoxide (DMSO), 10% N,N-dimethylacetamide (DMA), and 60% polyethylene glycol (PG) through the jugular cannula. Three additional male Sprague-Dawley rats (200-250 g each) were administered a single dose containing 1 mg/kg each of L-838417, Compound 103 and Compound 105 (as a 1:1:1 mixture containing 1 mg/mL of each of the three compounds in 10% dimethyl sulfoxide (DMSO), 10% N,N-dimethylacetamide (DMA), and 60% polyethylene glycol (PG) by oral gavage. Blood (0.25 mL) from intravenously treated test rats was collected retro-orbitally at 2, 5, 15, and 30 minutes, and 1, 2, 4, and 6 hours post-dosing. Blood (0.25 mL) from orally treated test rats was collected retro-orbitally at 5, 15, 30, and 45 minutes, and 1, 2, 4, and 6 hours post-dosing. Blood was collected into tubes containing K2EDTA as anticoagulant at the above mentioned time points. Blood samples were stored on ice and then centrifuged to obtain plasma. The plasma (˜[…]) was aliquoted into deep 96-well plates and stored at −80° C. until analysis by LC-MS/MS using an Applied Bio-systems API 4000 mass spectrometer.

[4] = Pharmacokinetics after oral administration to rats; assay type: in vivo, Sprague-Dawley rats; conditions: for AUC0-6 % Change over L-838417 / AUC0-6 relative to undeuterated L-838417 / Cmax % Change over L-838417 / Cmax relative to L-838417: oral, rats; for Cmax / AUC(0-t): rat, plasma, oral gavage, 1 mg/kg each as 1:1:1 mixture, male Sprague-Dawley rats; for AUC(0-t): read-out: AUC0-6
Protocol: as §2

parent compound remained intact [1] | half-life at 0.25 µM [1] | stability in human liver microsomes [2] | clearance [3] | half-life [3] | AUC(0-t) [3] | AUC0-6 % Change over L-838417 [3] | AUC0-6 relative to undeuterated L-838417 [3] | CL % Change over L-838417 [3] | cleared more slowly than L-838417 [3] | longer half-life than undeuterated L-838417 [3] | t1/2 % Change over L-838417 [3] | stability in rat microsomes [1] | AUC0-6 % Change over L-838417 [4] | AUC0-6 relative to undeuterated L-838417 [4] | Cmax % Change over L-838417 [4] | Cmax relative to L-838417 [4] | Cmax [4] | AUC(0-t) [4] | Structure (SMILES) | also measured
– | – | stable | 8 mL/min/kg | 75 ± 8.4 min | 1920 ± 200 ng·h/mL | +131% | greater than two-fold higher | −62% | approximately 60% | approximately 80% | +79% | stable | +156% | greater than two and a half-fold higher | +116% | greater than two-fold higher | 277 ± 76 ng/mL | 1260 ± 289 ng·h/mL | [2H]C([2H])([2H])C(c1cc2nnc(-c3cc(F)ccc3F)n2nc1OCc1ncnn1C)(C([2H])([2H])[2H])C([2H])([2H])[2H] [Compound 103, 7-(tert-Butyl-d9)-3-(2,5-difluorophenyl)-6-((1-methyl-1H-1,2,4-triazol-5-yl)methoxy)-[1,2,4]triazolo[4,3-b]pyridazine] | –
– | – | stable | – | – | – | – | – | – | – | – | – | stable | – | – | – | – | – | – | [2H]C([2H])([2H])n1ncnc1COc1nn2c(-c3cc(F)ccc3F)nnc2cc1C(C([2H])([2H])[2H])(C([2H])([2H])[2H])C([2H])([2H])[2H] [Compound 104, 7-(tert-Butyl-d9)-3-(2,5-difluorophenyl)-6-((1-(methyl-d3)-1H-1,2,4-triazol-5-yl)-methoxy)-[1,2,4]triazolo[4,3-b]pyridazine] | –

More lines, now with the values behind:

Structure (SMILES) | parent compound remained intact [1] | half-life at 0.25 µM [1] | stability in human liver microsomes [2] | clearance [3] | half-life [3] | AUC(0-t) [3] | AUC0-6 % Change over L-838417 [3] | AUC0-6 relative to undeuterated L-838417 [3] | CL % Change over L-838417 [3] | cleared more slowly than L-838417 [3] | longer half-life than undeuterated L-838417 [3] | t1/2 % Change over L-838417 [3] | stability in rat microsomes [1] | AUC0-6 % Change over L-838417 [4] | AUC0-6 relative to undeuterated L-838417 [4] | Cmax % Change over L-838417 [4] | Cmax relative to L-838417 [4] | Cmax [4] | AUC(0-t) [4] | also measured
[2H]C([2H])(Oc1nn2c(-c3cc(F)ccc3F)nnc2cc1C(C)(C)C)c1ncnn1C([2H])([2H])[2H] [Compound 101, 7-tert-Butyl-3-(2,5-difluorophenyl)-6-((1-(methyl-d3)-1H-1,2,4-triazol-5-yl)-1,1-d2-methoxy)-[1,2,4]triazolo[4,3-b]pyridazine] | approximately 70% | 52.7 min | stable | – | – | – | – | – | – | – | – | – | – | – | – | – | – | – | – | –
[2H]C([2H])(Oc1nn2c(-c3cc(F)ccc3F)nnc2cc1C(C([2H])([2H])[2H])(C([2H])([2H])[2H])C([2H])([2H])[2H])c1ncnn1C([2H])([2H])[2H] [Compound 105, 7-(tert-Butyl-d9)-3-(2,5-difluorophenyl)-6-((1-(methyl-d3)-1H-1,2,4-triazol-5-yl)-1,1-d2-methoxy)-[1,2,4]triazolo[4,3-b]pyridazine] | – | – | stable | 7.67 mL/min/kg | 76.2 ± 8.4 min | 1960 ± 190 ng·h/mL | +136% | greater than two-fold higher | −60% | approximately 60% | approximately 80% | +81% | stable | +154% | greater than two and a half-fold higher | +119% | greater than two-fold higher | 280 ± 80 ng/mL | 1250 ± 272 ng·h/mL | –
Cn1ncnc1COc1nn2c(-c3cc(F)ccc3F)nnc2cc1C(C)(C)C [Compound L-838417, 7-tert-butyl-3-(2,5-difluorophenyl)-6-(1-methyl-1H-1,2,4-triazol-5-ylmethoxy)[1,2,4]triazolo[4,3-b]pyridazine, reference compound] | approximately 70% | 50.5 min | – | 18.3 mL/min/kg | 42 ± 2.4 min | 831 ± 86 ng·h/mL | – | – | – | – | – | – | – | – | – | – | – | 128 ± 40 ng/mL | 491 ± 95 ng·h/mL | parent compound remained intact ([2]; 30 minutes incubation, 0.25 μM test compound, 37° C.): approximately 70%; half-life at 0.25 µM ([2]; pH 7.4, calculated from slope of ln % parent remaining vs time, read-out: in vitro half life): 54.4 min
